From patent US7238694B2, “Rifamycin imino derivatives effective against drug-resistant microbes” (Cumbre Pharmaceuticals, Inc., priority 2004, dated 2007)
In brackets after ≈: the same amount, converted by molar mass. Where two headings read alike, the source gives them in different places.

Tests used:
Format in all cases: cell-based
[1] = tested on: Staphylococcus aureus ATCC29213; test: MIC, microbroth dilution (NCCLS)
[2] = tested on: Staphylococcus aureus ATCC29213 rpoB^H418Y; test: microbe, parasite or virus in culture
[3] = tested on: Staphylococcus aureus MT1222 gyrA^A116E grlB^S80F; test: microbe, parasite or virus in culture
[4] = tested on: Staphylococcus epidermidis ATCC12228; test: MIC, microbroth dilution (NCCLS)
[5] = tested on: Streptococcus pneumoniae ATCC6303; test: MIC, microbroth dilution (NCCLS)
[6] = tested on: Streptococcus pyogenes ATCC19615; test: MIC, microbroth dilution (NCCLS)
[7] = tested on: Haemophilus influenzae ATCC10211; test: MIC, microbroth dilution (NCCLS)
[8] = tested on: Staphylococcus aureus ATCC29213 rpoB^D417Y; test: microbe, parasite or virus in culture
[9] = tested on: Enterococcus faecalis ATCC29212; test: MIC, microbroth dilution (NCCLS)
[10] = tested on: Escherichia coli ATCC25922; test: MIC, microbroth dilution (NCCLS)
[11] = tested on: Mycobacterium smegmatis ATCC700084; test: MIC, microbroth dilution (NCCLS)
[12] = MIC, panel of rifampin-susceptible Gram-positive strains; details: text summary over five rifampin-susceptible Gram-positive strains
[13] = tested on: H. influenzae ATCC 10211 and E. coli ATCC 25922; test: MIC, Gram-negative bacteria; details: text summary over two Gram-negative strains
[14] = rifS strain, Cation-Adjusted Mueller-Hinton Broth, 37° C., read-out: MIC
[15] = Staphylococcus aureus, ATCC29213, rifR strain, Cation-Adjusted Mueller-Hinton Broth, 37° C., read-out: MIC
[16] = cipR strain, Cation-Adjusted Mueller-Hinton Broth, 37° C., read-out: MIC
[17] = rifS strain, THY Broth with 1 mg/mL catalase, 5% CO2, 37° C., read-out: MIC
[18] = rifS strain, THY Broth, 37° C., read-out: MIC
[19] = rifS strain, BHI Broth with NAD and hematin, 37° C., read-out: MIC
[20] = Staphylococcus aureus, ATCC29213
[21] = rifR strain, Cation-Adjusted Mueller-Hinton Broth, 37° C.

Compound	MIC [1, 14] [µg/mL]	MIC [2, 15] [µg/mL]	MIC [3, 16] [µg/mL]	MIC [4, 14] [µg/mL]	MIC [5, 17] [µg/mL]	MIC [6, 18] [µg/mL]	MIC [7, 19] [µg/mL]	also measured
COc1c(N2CCC(N3CCN(/N=C/c4c5c(O)c6c(O)c(C)c7c(c6c4O)C(=O)[C@@](C)(O/C=C/[C@H](OC)[C@@H](C)[C@@H](OC(C)=O)[C@H](C)[C@H](O)[C@H](C)[C@@H](O)[C@@H](C)/C=C/C=C(/C)C(=O)N5)O7)CC3)CC2)c(F)cc2c(=O)c(C(=O)O)cn(C3CC3)c12 [Example 27, 3-{4-[1-(3-Carboxy-1-cyclopropyl-6-fluoro-8-methoxy-4-oxo-1,4-dihydroquinolin-7-yl)-piperidin-4-yl]-piperazin-1-yl-aminomethylenyl}-rifamycin SV]	0.008 to 1 (≈ 0.00685 to 0.857 µM)	0.06 to 16 (≈ 0.0514 to 13.7 µM)	0.008 to 0.125 (≈ 0.00685 to 0.107 µM)	0.008 to 0.1 (≈ 0.00685 to 0.0857 µM)	0.008 to 0.06 (≈ 0.00685 to 0.0514 µM)	0.008 to 0.03 (≈ 0.00685 to 0.0257 µM)	0.125 to 4 (≈ 0.107 to 3.43 µM)	
COc1c(N2CCN(C(=O)C3CCN(/N=C/c4c5c(O)c6c(O)c(C)c7c(c6c4O)C(=O)[C@@](C)(O/C=C/[C@H](OC)[C@@H](C)[C@@H](OC(C)=O)[C@H](C)[C@H](O)[C@H](C)[C@@H](O)[C@@H](C)/C=C/C=C(/C)C(=O)N5)O7)CC3)CC2)c(F)cc2c(=O)c(C(=O)O)cn(C3CC3)c12 [Example 32, 3-{4-[4-(3-Carboxy-1-cyclopropyl-6-fluoro-8-methoxy-4-oxo-1,4-dihydroquinolin-7-yl)-piperazine-1-yl-carbonyl]-piperidin-1-yl-aminomethylenyl}-rifamycin SV]	0.008 to 1 (≈ 0.00669 to 0.837 µM)	0.06 to 16 (≈ 0.0502 to 13.4 µM)	0.008 to 0.125 (≈ 0.00669 to 0.105 µM)	0.008 to 0.1 (≈ 0.00669 to 0.0837 µM)	0.008 to 0.06 (≈ 0.00669 to 0.0502 µM)	0.008 to 0.03 (≈ 0.00669 to 0.0251 µM)	0.125 to 4 (≈ 0.105 to 3.35 µM)	
CO[C@H]1/C=C/O[C@@]2(C)Oc3c(C)c(O)c4c(O)c(c(/C=N/N5CCN(c6nc7c(cc6F)c(=O)c(C(=O)O)cn7C6CC6)CC5)c(O)c4c3C2=O)NC(=O)/C(C)=C\C=C\[C@H](C)[C@H](O)[C@@H](C)[C@@H](O)[C@@H](C)[C@H](OC(C)=O)[C@@H]1C [Example 35, 3-[4-(3-Carboxy-1-cyclopropyl-6-fluoro-4-oxo-1,4-dihydro-[1,8]naphthyridine-7-yl)-piperazin-1-yl-aminomethylenyl]-rifamycin SV]	0.008 to 1 (≈ 0.00758 to 0.948 µM)	0.06 to 16 (≈ 0.0569 to 15.2 µM)	0.008 to 0.125 (≈ 0.00758 to 0.118 µM)	0.008 to 0.1 (≈ 0.00758 to 0.0948 µM)	0.008 to 0.06 (≈ 0.00758 to 0.0569 µM)	0.008 to 0.03 (≈ 0.00758 to 0.0284 µM)	0.125 to 4 (≈ 0.118 to 3.79 µM)	
CO[C@H]1/C=C/O[C@@]2(C)Oc3c(C)c(O)c4c(O)c(c(/C=N/N5CCN(c6c(F)cc7c(=O)c(C(=O)O)cn(C8CC8)c7c6Cl)CC5)c(O)c4c3C2=O)NC(=O)/C(C)=C\C=C\[C@H](C)[C@H](O)[C@@H](C)[C@@H](O)[C@@H](C)[C@H](OC(C)=O)[C@@H]1C [Example 40, 3-[4-(3-Carboxy-8-chloro-1-cyclopropyl-6-fluoro-4-oxo-1,4-dihydroquinolin-7-yl)-piperazin-1-yl-aminomethylenyl]-rifamycin SV]	0.008 to 1 (≈ 0.00735 to 0.919 µM)	0.06 to 16 (≈ 0.0551 to 14.7 µM)	0.008 to 0.125 (≈ 0.00735 to 0.115 µM)	0.008 to 0.1 (≈ 0.00735 to 0.0919 µM)	0.008 to 0.06 (≈ 0.00735 to 0.0551 µM)	0.008 to 0.03 (≈ 0.00735 to 0.0276 µM)	0.125 to 4 (≈ 0.115 to 3.67 µM)	
COc1c(N2CCC(C(C)N/N=C/c3c4c(O)c5c(O)c(C)c6c(c5c3O)C(=O)[C@@](C)(O/C=C/[C@H](OC)[C@@H](C)[C@@H](OC(C)=O)[C@H](C)[C@H](O)[C@H](C)[C@@H](O)[C@@H](C)/C=C/C=C(/C)C(=O)N4)O6)C2)c(F)cc2c(=O)c(C(=O)O)cn(C3CC3)c12 (stereo partly drawn) [Example 42, 3-({1-[1-(3-Carboxy-1-cyclopropyl-6-fluoro-8-methoxy-4-oxo-1,4-dihydro-quinolin-7-yl)-pyrrolidin-3-yl]-ethyl}-hydrazinomethylenyl)-rifamycin SV]	0.008 to 1 (≈ 0.00719 to 0.899 µM)	0.06 to 16 (≈ 0.0539 to 14.4 µM)	0.008 to 0.125 (≈ 0.00719 to 0.112 µM)	0.008 to 0.1 (≈ 0.00719 to 0.0899 µM)	0.008 to 0.06 (≈ 0.00719 to 0.0539 µM)	0.008 to 0.03 (≈ 0.00719 to 0.027 µM)	0.125 to 4 (≈ 0.112 to 3.6 µM)	
CO[C@H]1/C=C/O[C@@]2(C)Oc3c(C)c(O)c4c(O)c(c(/C=N/N5CCN(C)CC5)c(O)c4c3C2=O)NC(=O)/C(C)=C\C=C\[C@H](C)[C@H](O)[C@@H](C)[C@@H](O)[C@@H](C)[C@H](OC(C)=O)[C@@H]1C [rifampin, reference compound]								MIC [1]: 0.008 µg/mL (≈ 0.00972 µM); MIC [2, 20]: 7.8 µg/mL (≈ 9.48 µM); MIC [2, 21]: 7.8 µg/mL (≈ 9.48 µM); MIC [8, 20]: > 64 µg/mL; MIC [8, 21]: >64 µg/mL; MIC [3]: 0.004 µg/mL (≈ 0.00486 µM); MIC [4]: 0.03 µg/mL (≈ 0.0365 µM); MIC [5]: 0.061 µg/mL (≈ 0.0741 µM); MIC [6]: 0.013 µg/mL (≈ 0.0158 µM); MIC [9]: 0.98 µg/mL (≈ 1.19 µM); MIC [7]: 0.24 µg/mL (≈ 0.292 µM); MIC [10]: 16 µg/mL (≈ 19.4 µM); MIC ([11]; Mycolicibacterium smegmatis, ATCC700084): 64 µg/mL (≈ 77.8 µM); MIC ([11]; rifS strain, Middlebrook Broth plus ADC Enrichment, 37° C.): 64 µg/mL; MIC [12]: 0.008 to 1 µg/mL (≈ 0.00972 to 1.22 µM); MIC [13]: 0.24 to 16 µg/mL (≈ 0.292 to 19.4 µM)
